According to PMC9962600, “Structure-Function Studies of Sponge-Derived Compounds on the Cardiac CaV3.1 Channel” (International Journal of Molecular Sciences, 2023):
Several values for one entry are separate records, joined by “and”; a condition that tells them apart may be missing. Equal entries are not always repeated.

How the values were obtained:
[1] = molecular target: T1, rat CaV3.1 channel (Rattus norvegicus, UniProt O54898); experiment: Two-electrode voltage clamp on Xenopus oocytes expressing CaV3.1; type: cell-based; settings: for inhibition at 10 µM / Shift in the voltage dependency (activation/inactivation) of CaV3.1: 10 μM compound; for inhibition at 10 µM: 10 mM Ba2+, means ± SEM (n ≥ 3), read-out: Inhibition of CaV3.1 currents; for IC50: concentration-response 0.1-100 μM, means ± SEM; for Hill coefficient on CaV3.1: concentration-response fit; for Reversibility of effect on CaV3.1 on wash-out: wash-in and wash-out
Protocol: In previous work, a library of 119 simplified analogs was synthesized with the aim of targeting KV10.1 [18, 23, 24, 25]. Due to the interesting activity of purpurealidin I (1), we decided to repurpose this existing library to investigate the structure–activity relationship with respect to the CaV3.1 channels. All compounds were first dissolved in DMSO and then diluted in a 10 mM Ba^2+ solution. Compounds were tested at a final concentration of 10 μM.
(§1) Rat CaV3.1, human CaV3.2, rat CaV3.3, human NaV1.5, rat KV1.4, rat KV4.2, and human KV11.1 were expressed in X. laevis oocytes by linearizing the plasmids and subsequent in vitro transcription using a commercial T7 mMESSAGE mMACHINE transcription kit (Ambion, Carlsbad, CA, USA). Defolliculated Xenopus oocytes were injected with 50 nL of cRNA at a concentration of 1 ng/nL by using a microinjector (Drummond Scientific Company, Broomall, PA, USA). The oocytes were incubated in a solution containing (in mM): NaCl, 96; KCl, 2; CaCl2, 1.8; MgCl2, 2; and HEPES, 5 (pH 7.5). This solution was supplemented with 50 mg/L gentamicin sulfate and […] theophylline.
(§2) Two-electrode voltage clamp recordings were performed at room temperature (18–22 °C) by using a GeneClamp 500 amplifier (Molecular Devices, San Jose, CA, USA) controlled by a pClamp data acquisition system (Axon Instruments, Union City, CA, USA). Whole-cell currents from oocytes were recorded 5–10 days after mRNA injection. The bath solution composition was the following (in mM): BaCl2, 10; NaOH, 90; KOH, 1; EDTA, 0.1; and HEPES, 5 (pH 7.5). Voltage and current electrodes were filled with 3 M KCl. Resistances of both electrodes were kept between 0.8 and 1.5 MΩ. The elicited CaV3.1, CaV3.2, and CaV3.3 currents were filtered at 2 kHz and sampled at 4 kHz using a four-pole low-pass Bessel filter. Leak subtraction was performed by using a -P/4 protocol. Oocytes were placed in a measuring chamber filled with 200 μL ND96. The compounds were added directly to the measuring chamber under continuous application of the described voltage protocol. The percentage channel modulation was calculated when steady-state conditions were reached.
(§3) For the electrophysiological analysis of peptides, a number of protocols were applied from a holding potential of −90 mV. Currents for CaV3.1 and CaV3.2, which were carried by Ba^2+, were evoked by 300 ms depolarizing pulses to −25 mV or Vmax (the voltage corresponding to maximal Ba^2+ current in control conditions). Currents for CaV3.3, which were carried by Ba^2+, were evoked by 1 s depolarizing pulses to −25 mV or Vmax. The current–voltage relationships were determined by 600 ms step depolarizations between −90 and +60 mV, using 10 mV increments. The values of IPBa were normalized to the maximal Ba^2+ current amplitude and plotted as a function of voltage. To investigate the effect of the peptide toxins on the activation and steady-state inactivation, a standard 2-step protocol was used. In this protocol, 600 ms conditioning 10 mV step prepulses, ranging from −90 to +60 mV, were followed by a 400 ms test pulse to −25 mV. Data were normalized to the maximal Ba^2+ current amplitude, plotted against prepulse potential, and fitted by using the Boltzmann function: ICa/Imax = {(1 − C)/(1 + exp[(V − Vh)/k)]} + C, where Imax is the maximal IBa, Vh is the voltage corresponding to half-maximal inactivation, V is the test voltage, k is the slope factor, and C is a constant representing a non-inactivating persistent fraction (close to 0 in control). The concentration–response relationship was determined by fitting the data with the Hill equation: y = 100/{1 + [IC50/(toxin)]^h}, where y is the amplitude of the toxin-induced effect, IC50 is the toxin concentration at half-maximal efficacy, toxin is the toxin concentration, and h is the Hill coefficient.

[2] = molecular target: rat CaV3.3 (Rattus norvegicus, UniProt Q9Z0Y8); experiment: Two-electrode voltage clamp on Xenopus oocytes expressing CaV3.3; type: cell-based; settings: for Shift in the voltage dependency (activation/inactivation) of CaV3.3: 10 μM compound; for Hill coefficient on CaV3.3: concentration-response fit; for IC50: concentration-response, means ± SEM; for Reversibility of effect on CaV3.3 on wash-out: wash-in and wash-out
Protocol: as §1, §2, §3

[3] = molecular target: human CaV3.2 (Homo sapiens, UniProt O95180); experiment: Two-electrode voltage clamp on Xenopus oocytes expressing CaV3.2; type: cell-based; settings: for Shift in the voltage dependency (activation/inactivation) of CaV3.2: 10 μM compound; for Hill coefficient on CaV3.2: concentration-response fit; for IC50: concentration-response, means ± SEM; for Reversibility of effect on CaV3.2 on wash-out: wash-in and wash-out
Sequence of human CaV3.2 (O95180 whole entry): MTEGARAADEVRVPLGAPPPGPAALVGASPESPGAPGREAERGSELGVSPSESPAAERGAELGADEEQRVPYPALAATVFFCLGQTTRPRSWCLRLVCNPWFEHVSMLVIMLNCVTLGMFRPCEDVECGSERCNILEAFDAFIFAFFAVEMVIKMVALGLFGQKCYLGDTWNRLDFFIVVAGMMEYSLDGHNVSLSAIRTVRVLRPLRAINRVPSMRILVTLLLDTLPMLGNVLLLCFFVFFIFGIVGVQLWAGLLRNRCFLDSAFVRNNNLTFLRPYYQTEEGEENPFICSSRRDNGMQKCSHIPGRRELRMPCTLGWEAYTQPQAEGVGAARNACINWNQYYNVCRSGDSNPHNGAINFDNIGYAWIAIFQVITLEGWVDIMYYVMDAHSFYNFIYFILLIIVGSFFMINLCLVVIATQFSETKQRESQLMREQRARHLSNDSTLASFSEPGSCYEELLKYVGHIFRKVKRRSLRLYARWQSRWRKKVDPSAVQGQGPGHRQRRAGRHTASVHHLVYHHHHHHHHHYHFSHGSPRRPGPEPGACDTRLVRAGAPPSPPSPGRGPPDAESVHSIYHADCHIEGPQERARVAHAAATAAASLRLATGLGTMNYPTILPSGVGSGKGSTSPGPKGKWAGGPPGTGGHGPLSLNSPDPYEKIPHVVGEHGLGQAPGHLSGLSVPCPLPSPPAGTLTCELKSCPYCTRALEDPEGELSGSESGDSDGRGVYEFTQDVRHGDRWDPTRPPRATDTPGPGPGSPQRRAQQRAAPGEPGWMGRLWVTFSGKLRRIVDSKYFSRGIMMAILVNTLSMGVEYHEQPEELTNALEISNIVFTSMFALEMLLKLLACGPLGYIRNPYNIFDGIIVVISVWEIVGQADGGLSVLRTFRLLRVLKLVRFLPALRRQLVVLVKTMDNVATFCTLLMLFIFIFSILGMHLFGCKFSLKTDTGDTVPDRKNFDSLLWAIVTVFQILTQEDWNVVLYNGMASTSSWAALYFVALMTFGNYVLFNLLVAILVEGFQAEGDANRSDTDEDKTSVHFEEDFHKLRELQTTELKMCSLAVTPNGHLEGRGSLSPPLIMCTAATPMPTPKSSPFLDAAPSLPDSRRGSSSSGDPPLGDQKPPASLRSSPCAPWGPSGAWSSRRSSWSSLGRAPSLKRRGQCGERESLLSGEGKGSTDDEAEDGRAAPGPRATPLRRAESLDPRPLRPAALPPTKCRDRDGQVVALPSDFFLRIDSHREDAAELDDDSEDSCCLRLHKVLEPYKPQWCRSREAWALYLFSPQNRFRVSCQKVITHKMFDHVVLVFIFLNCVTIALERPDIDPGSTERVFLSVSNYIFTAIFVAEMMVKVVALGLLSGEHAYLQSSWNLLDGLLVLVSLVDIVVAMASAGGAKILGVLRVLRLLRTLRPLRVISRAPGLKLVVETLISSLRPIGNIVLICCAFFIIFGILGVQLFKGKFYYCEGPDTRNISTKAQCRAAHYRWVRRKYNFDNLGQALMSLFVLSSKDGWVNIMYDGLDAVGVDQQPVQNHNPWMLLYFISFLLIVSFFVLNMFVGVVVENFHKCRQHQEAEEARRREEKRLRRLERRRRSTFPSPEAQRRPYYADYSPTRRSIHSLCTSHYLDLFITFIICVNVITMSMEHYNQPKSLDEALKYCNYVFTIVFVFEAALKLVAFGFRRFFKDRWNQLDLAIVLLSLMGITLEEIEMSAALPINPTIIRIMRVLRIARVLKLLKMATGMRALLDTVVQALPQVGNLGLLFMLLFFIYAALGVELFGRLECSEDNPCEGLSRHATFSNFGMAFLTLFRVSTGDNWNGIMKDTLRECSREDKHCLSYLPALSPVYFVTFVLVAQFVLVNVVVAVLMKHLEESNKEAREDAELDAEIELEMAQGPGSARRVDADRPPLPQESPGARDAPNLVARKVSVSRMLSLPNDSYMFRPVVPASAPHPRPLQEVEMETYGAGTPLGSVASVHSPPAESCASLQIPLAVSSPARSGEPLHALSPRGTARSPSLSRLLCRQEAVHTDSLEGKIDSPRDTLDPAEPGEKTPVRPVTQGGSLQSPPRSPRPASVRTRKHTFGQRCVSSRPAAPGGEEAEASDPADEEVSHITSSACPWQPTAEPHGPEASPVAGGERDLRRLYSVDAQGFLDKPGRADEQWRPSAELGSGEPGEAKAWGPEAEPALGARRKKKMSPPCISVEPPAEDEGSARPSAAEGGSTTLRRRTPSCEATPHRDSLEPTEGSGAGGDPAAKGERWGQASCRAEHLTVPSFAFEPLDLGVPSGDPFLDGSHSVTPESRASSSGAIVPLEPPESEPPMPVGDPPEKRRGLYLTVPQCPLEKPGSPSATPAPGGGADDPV
Protocol: as §1, §2, §3

[4] = molecular target: KV11.1 (hERG) (Homo sapiens, UniProt Q12809); experiment: Selectivity screening, KV11.1 (hERG) in Xenopus oocytes; type: cell-based; settings: human, Xenopus laevis oocytes expressing human KV11.1 (hERG), pH 7.5; 10 μM; means ± SEM (n ≥ 3); read-out: Percentage of inhibition of KV11.1
Sequence of KV11.1 (hERG) (Q12809 whole entry): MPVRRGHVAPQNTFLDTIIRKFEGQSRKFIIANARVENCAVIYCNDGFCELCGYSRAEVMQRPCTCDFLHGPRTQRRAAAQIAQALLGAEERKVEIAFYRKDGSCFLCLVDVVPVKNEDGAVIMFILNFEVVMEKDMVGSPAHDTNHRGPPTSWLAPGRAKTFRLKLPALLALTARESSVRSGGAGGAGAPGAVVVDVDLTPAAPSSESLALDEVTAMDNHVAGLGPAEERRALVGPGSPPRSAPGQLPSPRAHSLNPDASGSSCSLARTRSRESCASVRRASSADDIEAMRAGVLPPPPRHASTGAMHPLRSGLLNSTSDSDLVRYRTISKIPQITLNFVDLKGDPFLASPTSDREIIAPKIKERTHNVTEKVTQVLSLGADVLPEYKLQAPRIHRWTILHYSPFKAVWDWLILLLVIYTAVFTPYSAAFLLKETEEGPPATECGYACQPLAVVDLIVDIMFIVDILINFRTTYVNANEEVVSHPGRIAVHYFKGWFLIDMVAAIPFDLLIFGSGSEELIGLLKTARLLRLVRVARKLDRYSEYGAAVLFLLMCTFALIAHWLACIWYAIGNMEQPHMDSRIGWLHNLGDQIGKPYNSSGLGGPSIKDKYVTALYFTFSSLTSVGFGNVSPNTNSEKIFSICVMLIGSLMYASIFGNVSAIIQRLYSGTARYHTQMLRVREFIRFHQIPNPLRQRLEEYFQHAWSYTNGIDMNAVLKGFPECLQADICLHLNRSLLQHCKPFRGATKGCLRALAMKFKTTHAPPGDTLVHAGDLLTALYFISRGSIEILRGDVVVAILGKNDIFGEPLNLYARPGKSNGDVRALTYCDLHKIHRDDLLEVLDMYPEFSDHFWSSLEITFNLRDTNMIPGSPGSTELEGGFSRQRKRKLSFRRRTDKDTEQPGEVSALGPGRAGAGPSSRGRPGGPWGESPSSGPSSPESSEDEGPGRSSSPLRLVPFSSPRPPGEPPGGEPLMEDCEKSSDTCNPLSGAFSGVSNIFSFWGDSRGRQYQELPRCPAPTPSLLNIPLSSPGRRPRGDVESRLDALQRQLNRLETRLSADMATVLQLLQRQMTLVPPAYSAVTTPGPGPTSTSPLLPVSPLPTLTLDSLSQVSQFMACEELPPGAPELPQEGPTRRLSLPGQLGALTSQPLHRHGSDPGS
Protocol: (§4) As these purpurealidin analogs represent a new class of potent CaV3.1 inhibitors, they could potentially be used as pharmacological tools to investigate the role of CaV3 channels in various disease models. Therefore, compounds 74, 76, 79, and 99 were further evaluated at a concentration of 10 μM for their selectivity against cardiac voltage-gated potassium and sodium channels. […] Nevertheless, the affinity for the KV11.1 channel is an important issue for all four compounds (Table 2).
as §1
(§5) The selectivity screening was conducted with the following protocols: the elicited KV1.4, KV4.2, and KV11.1 currents were filtered at 0.5 kHz and sampled at 2 kHz; NaV1.5 currents were filtered at 2 kHz and sampled at 20 kHz using a four-pole low-pass Bessel filter. Leak subtraction was performed using a -P/4 protocol. The oocytes were measured in a bath solution composition of ND96 (in mM): NaCl, 96; KCl, 2; CaCl2, 1.8; MgCl2, 2; and HEPES, 5 (pH 7.5). For the electrophysiological analysis of the compounds, a number of protocols were applied from a holding potential of −90 mV. Currents for KV1.4 and KV4.2 were evoked by 0.5 s depolarizing pulses to 0 mV, followed by 0.5 s repolarizing pulses to −50 mV. Currents for KV11.1 were evoked by 2.5 s depolarizing prepulses to +40 mV, followed by hyperpolarizing pulses to −120 mV for 2.5 s. Currents for NaV1.5 were evoked by 100 ms depolarizing pulses to 0 mV.

[5] = molecular target: T1, rat CaV3.1 channel; experiment: Two-electrode voltage clamp on Xenopus oocytes expressing CaV3.1; type: cell-based
[6] = molecular target: human KV11.1 (Homo sapiens, UniProt Q12809); experiment: Selectivity screening, KV11.1 (hERG) in Xenopus oocytes; type: cell-based; settings: comparison of own CaV3.1 and KV11.1 data
Sequence of human KV11.1 (Q12809 whole entry): as above
Protocol: as §4, §1, §5

[7] = tested on: hERG channels; settings: reference not given; cited from earlier work

Row | inhibition at 10 µM [1] | Shift in the voltage dependency (activation/inactivation) of CaV3.3 [2] | Hill coefficient on CaV3.3 [2] | IC50 [2] | Reversibility of effect on CaV3.3 on wash-out [2] | Shift in the voltage dependency (activation/inactivation) of CaV3.2 [3] | Hill coefficient on CaV3.2 [3] | IC50 [3] | Reversibility of effect on CaV3.2 on wash-out [3] | Shift in the voltage dependency (activation/inactivation) of CaV3.1 [1] | IC50 [1] | Hill coefficient on CaV3.1 [1] | Reversibility of effect on CaV3.1 on wash-out [1] | Structure (SMILES) | inhibition at 10 µM [4] | further results
1 | 70.5 ± 0.6% |  |  |  |  |  |  |  |  |  |  |  |  | CNCCCOc1c(Br)cc(CCNC(=O)/C(Cc2cc(Br)c(OC)c(Br)c2)=N/O)cc1Br [Compound 1, purpurealidin I] |  | 
2 | 3.1 ± 1.1% |  |  |  |  |  |  |  |  |  |  |  |  | O=C(NCc1cccnc1)C1=NOC2(C=C(Cl)C(=O)C(Cl)=C2)C1 [Compound 72] |  | 
3 | 43.4 ± 2.4% | No significant shift | 0.5 ± 0.1 | 13.9 ± 5.1 µM | reversible | No significant shift | 0.8 ± 0.0 | 3 ± 0.2 µM | reversible | No significant shift | 2.6 ± 0.6 µM | 0.8 ± 0.1 | reversible | CN(C)CCCOc1ccc(Nc2ccc(C(F)(F)F)cc2[N+](=O)[O-])cc1 [Compound 74] | 45.8 ± 2.9% | 
4 | 43 ± 4.5% | No significant shift | 0.7 ± 0.1 | 18.2 ± 3.1 µM | reversible | No significant shift | 0.8 ± 0.1 | 8.4 ± 3.6 µM | reversible | No significant shift | 3.7 ± 0.6 µM | 0.9 ± 0.1 | reversible | CN(C)CC(O)COc1ccc(Nc2ccc(C(F)(F)F)cc2[N+](=O)[O-])cc1 (stereo not shown) [Compound 76] | 64.2 ± 3.2% | 
5 | 60.4 ± 5.7% | No significant shift | 0.7 ± 0.1 | 2.7 ± 0.3 µM | reversible | No significant shift | 1.0 ± 0.0 | 7 ± 0.1 µM | reversible | No significant shift | 5.9 ± 1.9 µM | 0.8 ± 0.1 | reversible | CN(C)CC(O)COc1ccc(Nc2ccc(C(F)(F)F)cc2)cc1 (stereo not shown) [Compound 79] | 67.6 ± 3.9% | 
6 | 90.7 ± 5.4% |  |  |  |  |  | 1.4 ± 0.3 | 2.3 ± 0.5 µM |  |  | ~3 µM and 4.1 µM | 1.6 ± 0.1 |  | CN(C)CC(O)COc1ccc(Oc2ccc(C(F)(F)F)cc2[N+](=O)[O-])cc1 (stereo not shown) [Compound 99] | 69.1 ± 1.9% | Shift in the voltage dependency (activation/inactivation) of CaV3.1 ([5]; 5 μM compound): no significant shift; inhibition at 5 µM ([5]; 5 μM compound, read-out: Inhibition of CaV3.1 currents): 57 ± 5.8%; Reversibility of effect on CaV3.1 on wash-out ([5]; 5 μM compound, wash-out with compound-free bath solution): not completely reversible; Midpoint of activation V1/2 ([5]; in the presence of 5 μM compound, control −39.9 ± 0.1 mV): −37.4 ± 0.1 mV; Inactivation curve V1/2 ([5]; in the presence of 5 μM compound, control −56.0 ± 0.1 mV): −53.0 ± 0.2 mV; Potency across CaV3.1 and hERG channels [6]: equipotent
7 |  |  |  |  |  |  |  |  |  |  |  |  |  | CC(C)(C)NC(=O)CN1CCC(CNC(=O)c2cc(F)cc(Cl)c2)CC1 [Compound Z944] |  | IC50 [7]: 7.8 µM; Potency against CaV3.1 compared to hERG channels [7]: 150 fold
